Reference: paper PMC12583704 (Signal Transduction and Targeted Therapy, 2025)
Read-outs that look alike come from different tables or passages of the source.

How the values were obtained:
[1] = ref HQP1351 SJ0003 Protocol, cited from earlier work
GIST T1 model = system: GIST T1 model; design: method as in HQP1351 SJ0003 Protocol; details: ref HQP1351 SJ0003 Protocol, cited from earlier work
[2] = system: Chinese hamster lung fibroblasts; design: method as in HQP1351 SJ0003 Protocol; details: ref HQP1351 SJ0003 Protocol; cited from earlier work
CYP2C9 = system: CYP2C9; design: method as in HQP1351 SJ0003 Protocol; details: 0 - 50 μM; ref HQP1351 SJ0003 Protocol; cited from earlier work
SDHB KD PC12#5F7 cells = assay: Western blot of signaling proteins after 24 h treatment; assay type: cell-based, rat
Description: Harvested cells treated with dimethyl sulfoxide (DMSO) or the indicated concentrations of compounds were dissolved in 1× SDS sample lysis buffer. […] Finally, the target proteins were visualized via an enhanced chemiluminescence (ECL) western blotting detection kit (Yeasen). The primary antibodies used included FGF3 (PA5-102906) and FGF4 (PA5-115228) from Thermo Fisher Scientific (Waltham, MA, USA); HIF-2α (PA116510) from Invitrogen; SDHB (AB14714), HIF-1α (ab16066), VEGFA (ab214424), and IGF-1R (ab182408) and CD36 (ab133625) from Abcam; and phosphorylated (p-) FGFR1 (52928), FGFR1 (9740), p-SRC (6943), SRC (2109), p-VEGFR2 (3770), VEGFR2 (9698), p-AKT (4060), AKT (4685), p-ERK (4370), ERK (4695), […] (9145), STAT3 (9139), PARP-1 (9532), caspase-3 (9665), cleaved caspase-3 (9664), and β-actin (3700) from Cell Signaling Technology (CST).

GIST-T1-SDHB-KO cells = assay: Cell viability in lipid-depleted medium (CellTiter 96 Aqueous); assay type: cell-based; details: 3 nM; compared with GIST-T1 cells
[3] = design: method as in HQP1351 SJ0003 Protocol; details: 1.0 mg/kg oral; ref HQP1351 SJ0003 Protocol; cited from earlier work
[4] = SJ-0003 interim safety analysis
Description: Given once every other day, […]
efficacy as primary or secondary endpoints. The data cutoff date for SJ -0002, CC201, and […]
Data were obtained from 36 GIST […]
cohorts (20 mg QOD, 30 mg QOD, 40 mg QOD, and 50 mg QOD), and the safety analysis was based on a combination of the 4 dose groups. […]

non-SDH-deficient GISTs = assay: Phase 1 study: antitumor efficacy per RECIST v1.1 in non-SDH-deficient GIST; assay type: in vivo, human
Description: AEs were evaluated at each follow-up visit: on Days 1, 8, 15, and 22 during Cycles 1 and 2; and on Days 1 and 15 in Cycle 3 and all subsequent cycles, up to 30 days after the final dose. All AEs were graded according to the National Cancer Institute Common Terminology Criteria for Adverse Events v4.03. Clinical laboratory investigations for routine blood examinations and serum chemistry parameters were performed during every cycle (on Day 1), during Cycles 1 and 2 (on Days 8, 15, and 22), and 30 days after the last dose of treatment. Urinalysis, coagulation, cardiac troponin I/T, lipase, amylase, and electrocardiographic evaluations were conducted at baseline; during Cycles 1 and 2 (on Days 1 and 15); during Cycles 3, 5, 7, and 9; every three cycles after Cycle 9 (on Day 1); and 14 days after the last dose of treatment. All patients underwent tumor imaging for response assessment via computed tomography or magnetic resonance imaging at screening and every two cycles (8 weeks) until progression or discontinuation. Target and nontarget lesions were assessed per the Response Evaluation Criteria in Solid Tumors version 1.1 (RECIST v1.1). […]
Antitumor activity was evaluated in patients from the GIST population (including those with SDH-deficient and non-SDH-deficient disease) who had undergone at least one postbaseline disease assessment. […]

Sup-B15 = system: Sup-B15; design: method as in HQP1351 SJ0003 Protocol; details: ref HQP1351 SJ0003 Protocol; cited from earlier work
CYP2C19 = system: CYP2C19; design: method as in HQP1351 SJ0003 Protocol; details: 0 - 50 μM; ref HQP1351 SJ0003 Protocol; cited from earlier work
FGFR1 = FGFR1 (Homo sapiens, UniProt P11362); assay: In vitro biochemical kinase assay; details: kinase activity
GIST 48 = system: GIST 48; design: method as in HQP1351 SJ0003 Protocol; details: imatinib-resistant (exon11& exon 17); ref HQP1351 SJ0003 Protocol; cited from earlier work

Sequence of FGFR1 (P11362 22-822): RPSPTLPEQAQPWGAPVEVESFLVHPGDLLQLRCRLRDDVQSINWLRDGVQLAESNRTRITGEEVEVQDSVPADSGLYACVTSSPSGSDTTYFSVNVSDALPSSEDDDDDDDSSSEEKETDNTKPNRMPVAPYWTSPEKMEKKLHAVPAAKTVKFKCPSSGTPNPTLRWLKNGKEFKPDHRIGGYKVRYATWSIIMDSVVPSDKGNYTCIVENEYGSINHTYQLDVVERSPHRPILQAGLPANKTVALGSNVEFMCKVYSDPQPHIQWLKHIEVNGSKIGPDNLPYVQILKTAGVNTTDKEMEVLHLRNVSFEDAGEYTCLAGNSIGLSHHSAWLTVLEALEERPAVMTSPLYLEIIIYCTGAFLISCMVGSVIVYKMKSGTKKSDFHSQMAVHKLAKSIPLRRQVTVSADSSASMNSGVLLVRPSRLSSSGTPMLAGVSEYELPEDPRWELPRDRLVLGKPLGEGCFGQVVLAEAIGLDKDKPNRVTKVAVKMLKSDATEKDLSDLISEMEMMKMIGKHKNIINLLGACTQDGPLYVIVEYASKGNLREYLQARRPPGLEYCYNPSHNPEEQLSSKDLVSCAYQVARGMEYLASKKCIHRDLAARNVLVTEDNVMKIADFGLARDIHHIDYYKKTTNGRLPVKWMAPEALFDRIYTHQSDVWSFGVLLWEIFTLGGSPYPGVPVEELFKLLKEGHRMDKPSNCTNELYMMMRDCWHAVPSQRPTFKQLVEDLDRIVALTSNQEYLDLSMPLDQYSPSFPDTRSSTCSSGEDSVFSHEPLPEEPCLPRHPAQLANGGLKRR

Cc1ccc(C(=O)Nc2ccc(CN3CCN(C)CC3)c(C(F)(F)F)c2)cc1C#Cc1cnc2[nH]ncc2c1 [Olverembatinib, 3-[(1H-pyrazolo[3,4-b]pyridin-5-yl)ethynyl]-4-methyl-N-{4-[(4-methylpiperazin-1-yl)methyl]-3-(trifluoromethyl)phenyl]benzamide]
AUC0-24h ([1]; 0.75 mg/kg/day, Day 28, female): 23.81 ng·h/mL | Cmax ([1]; 0.75 mg/kg/day, Day 28, female): 3.22 ng/mL | AUC0-24h ([1]; 0.75 mg/kg/day, Day 28, male): 12.58 ng·h/mL | Cmax ([1]; 0.75 mg/kg/day, Day 28, male): 1.83 ng/mL | AUC0-24h ([1]; 3 mg/kg/day, Day 21, female): 70.68 ng·h/mL | Cmax ([1]; 3 mg/kg/day, Day 21, female): 10.28 ng/mL | AUC0-24h ([1]; 3 mg/kg/day, Day 21, male): 262.07 ng·h/mL | Cmax ([1]; 3 mg/kg/day, Day 21, male): 26.85 ng/mL | NOAEL ([1]; 28-day repeat-dose, 28-day recovery period): 1.5 mg/kg/day | mortality ([1]; intragastric 3 mg/kg/day daily for 21 consecutive days): animal death in an early period | exposure in tumor tissues at 48 hours post-dose (GIST T1 model; 20 mg/kg): 8,950 hr*ng/mL | plasma AUC0-∞ (GIST T1 model; 20 mg/kg): 1,122 h*ng/mL | plasma Cmax (GIST T1 model; 20 mg/kg): 249 ng/mL | exposure in tumor tissues at 48 hours post-dose (GIST T1 model; 40 mg/kg): 12,319 hr*ng/mL | plasma AUC0-∞ (GIST T1 model; 40 mg/kg): 1,739 h*ng/mL | plasma Cmax (GIST T1 model; 40 mg/kg): 216 ng/mL | exposure in tumor tissues at 48 hours post-dose (GIST T1 model; 60 mg/kg): 20,984 hr*ng/mL | plasma AUC0-∞ (GIST T1 model; 60 mg/kg): 3,406 h*ng/mL | plasma Cmax (GIST T1 model; 60 mg/kg): 213 ng/mL | teratogenicity on chromosomes [2]: no teratogenicity | inhibitory effect on CYP2C9 (CYP2C9): certain inhibitory effect | cleavage of caspase-3 and poly (ADP-ribose) polymerase 1 (SDHB KD PC12#5F7 cells): Increased cleavage | HIF-1α, HIF-2α, VEGFA, FGFR1, IGF-1R, phosphorylated FGFR1, AKT and ERK1/2 (SDHB KD PC12#5F7 cells; 24 hours): dose-dependently inhibited | sensitivity of cell viability, 3% FBS versus 10% FBS (GIST-T1-SDHB-KO cells): more sensitive to olverembatinib treatment | main distribution tissues [3]: lung, liver, and kidney | subjects who experienced fatal AEs ([4]; 36 GIST subjects, assessed as unlikely related to the drug): 11% | TEAE: Abdominal pain ([4]; human, in vivo): 22.2% | TEAE: Alanine aminotransferase increased ([4]; human, in vivo): 25.0% | TEAE: Anemia ([4]; human, in vivo): 41.7% | TEAE: Aspartate aminotransferase increased ([4]; human, in vivo): 33.3% | TEAE: C-reactive protein increased ([4]; human, in vivo): 22.2% | TEAE: Constipation ([4]; human, in vivo): 44.4% | TEAE: Hyperuricemia ([4]; human, in vivo): 33.3% | TEAE: Neutrophil count increased ([4]; human, in vivo): 52.8% | TEAE: asthma ([4]; human, in vivo): 38.9% | TEAE: hypoproteinemia ([4]; human, in vivo): 27.8% | TEAE: serum creatinine increased ([4]; human, in vivo): 25.0% | TEAE: white blood cell count increased ([4]; human, in vivo): 63.9% | subjects who discontinued treatment due to AEs ([4]; human, in vivo): 5 (14%) n (%) | subjects with at least one TEAE ([4]; human, in vivo): 100% | subjects with at least one serious adverse event (SAE) ([4]; human, in vivo): 28% | response (non-SDH-deficient GISTs; 25 evaluable patients): no response was observed | median PFS (non-SDH-deficient GISTs; patients with non-SDH-deficient GISTs, Kaplan-Meier): 2.9 (1.7–5.2) months | IC50 (Sup-B15): 2.5 nM | inhibitory effect on CYP2C19 (CYP2C19): certain inhibitory effect | IC50 (FGFR1): < 0.6 nM | IC50 (GIST 48): 41 ± 41 nM
